Measured values published in patent US7504420B2, “Compounds which inhibit beta-secretase activity and methods of use” (CoMentis, Inc., priority 2005, dated 2009).

Key:
cathepsin D = cathepsin D (Homo sapiens, UniProt P07339); test: Inhibition of cathepsin D catalytic activity (Ki); format: biochemical; details: pH 4.0, 37° C., read-out: CDK
Procedure: (§1) A substrate peptide NH3-ELDLAVEFWHDR-CO2 (SEQ ID NO.:1) (used for inhibition assay of memapsin 2, memapsin 1, and cathepsin D) was dissolved at 2 mg/ml in DMSO and diluted 1:100 in 0.1 M sodium acetate, pH 4.0 just prior to assay. Inhibitor dissolved in DMSO was diluted into 0.1 M sodium acetate, pH 4.0 (1:100 dilution). A […] aliquot of the inhibitor solution in pH 4 buffer was combined with […] of 0.1 M sodium acetate containing 100-200 nM of memapsin 1, memapsin 2, or cathepsin D. Following a pre-incubation at 37° C., the proteolytic assay was initated by addition of […] of the substrate diluted into pH 4 buffer, and incubation continued at 37° C. Aliquots were removed at time intervals, and combined with an equal volume of MALDI-TOF matrix (α-hydroxycinnamic acid in acetone, 20 mg/ml) and immediately spotted in duplicate onto a stainless-steel MALDI sample plate. MALDI-TOF mass spectrometry was performed on a PE Biosystems Voyager DE instrument at the Molecular Biology Resource Center on campus. The instrument was operated at 25,000 accelerating volts in positive mode with a 150 ns delay. Ions with a mass-to-charge ratio (m/z) were detected in the range of 650-2000 atomic mass units. Data were analyzed by the Voyager Data Explorer module to obtain ion intensity data for mass species of substrates and corresponding products in a given mixture. Relative product formation was calculated as the ratio of signal intensity of the product to the sum of signal intensities of both product and the corresponding substrate. Relative product formed per unit time was obtained from non-linear regression analysis of the data representing the initial 15% formation of product using the model: 1−e^−kT, where k was the relative hydrolytic rate constant and T was time in seconds. Alternatively, relative hydrolytic rates were determined using a fluorogenic cleavage assay (Ermolieff, J. et al., Biochemistry, 39: 12450-12456 (2000)). Initial rates from either method were expressed relative to uninhibited controls and the inhibition constant Ki was determined by a non-linear fit to a tight-binding model of competitive inhibition (Bieth, J., Bayer-Symposium V: Proteinase Inhibitors, pp 463-469, Spinger-Varlag, Berlin (1994)). Results are shown in Table 1 above (M2K, CDK, and M1K columns represent, respectively, the K1 values obtained for memapsin 2, cathepsin D and memapsin 1).

memapsin 2 = memapsin 2 (Homo sapiens, UniProt P56817); test: Inhibition of memapsin 2 catalytic activity (Ki); format: biochemical; details: memapsin 2, pH 4, 37° C.; read-out: M2K
Outline: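 Run at 37 °C and pH 4: compound and enzyme pre-incubated 20 min before FS-2 fluorogenic substrate started hydrolysis,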

[1] = test system: Aβ production in Chinese hamster ovary cells that over-express human APP695 with the London and Swedish mutations; test: Cellular Aβ IC50 determination (Aβ40 sandwich ELISA); details: Cricetulus griseus, CHO, 24 h, read-out: Cell, Aβ40, CHO cells over-expressing human APP695 (London and Swedish mutations), 24 h
memapsin 1 = molecular target: T1, memapsin 1 (Homo sapiens, UniProt Q9Y5Z0); test: Inhibition of memapsin 1 catalytic activity (Ki); format: biochemical; details: memapsin 1, pH 4.0, 37° C.; read-out: M1K
T1 sequence (Q9Y5Z0 63-518): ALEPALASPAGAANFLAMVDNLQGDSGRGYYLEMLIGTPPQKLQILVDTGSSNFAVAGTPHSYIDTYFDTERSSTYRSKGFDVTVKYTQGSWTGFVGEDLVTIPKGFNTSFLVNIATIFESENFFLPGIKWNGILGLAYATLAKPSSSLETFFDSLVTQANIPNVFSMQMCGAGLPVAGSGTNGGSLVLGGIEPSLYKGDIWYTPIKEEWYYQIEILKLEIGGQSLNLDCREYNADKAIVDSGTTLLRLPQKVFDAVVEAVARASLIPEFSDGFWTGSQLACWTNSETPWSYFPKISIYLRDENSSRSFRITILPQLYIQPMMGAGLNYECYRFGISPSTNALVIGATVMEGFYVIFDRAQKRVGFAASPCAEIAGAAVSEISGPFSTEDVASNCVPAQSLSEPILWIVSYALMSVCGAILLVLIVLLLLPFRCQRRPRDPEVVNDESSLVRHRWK
Procedure: as §1

memapsin 2, sequence (P56817 46-501): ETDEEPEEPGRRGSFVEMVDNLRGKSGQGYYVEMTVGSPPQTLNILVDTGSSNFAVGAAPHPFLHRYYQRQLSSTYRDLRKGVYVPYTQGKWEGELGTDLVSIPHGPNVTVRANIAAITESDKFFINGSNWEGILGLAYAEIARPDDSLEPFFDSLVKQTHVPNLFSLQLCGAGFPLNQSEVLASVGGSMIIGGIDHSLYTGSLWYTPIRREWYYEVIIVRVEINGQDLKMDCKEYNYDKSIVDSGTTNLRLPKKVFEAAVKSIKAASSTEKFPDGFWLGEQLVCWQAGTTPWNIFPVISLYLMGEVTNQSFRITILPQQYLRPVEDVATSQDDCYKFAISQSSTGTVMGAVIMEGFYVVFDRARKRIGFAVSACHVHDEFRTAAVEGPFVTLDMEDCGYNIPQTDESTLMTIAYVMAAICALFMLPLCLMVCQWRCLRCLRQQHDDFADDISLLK
cathepsin D, sequence (P07339 65-412, species assumed): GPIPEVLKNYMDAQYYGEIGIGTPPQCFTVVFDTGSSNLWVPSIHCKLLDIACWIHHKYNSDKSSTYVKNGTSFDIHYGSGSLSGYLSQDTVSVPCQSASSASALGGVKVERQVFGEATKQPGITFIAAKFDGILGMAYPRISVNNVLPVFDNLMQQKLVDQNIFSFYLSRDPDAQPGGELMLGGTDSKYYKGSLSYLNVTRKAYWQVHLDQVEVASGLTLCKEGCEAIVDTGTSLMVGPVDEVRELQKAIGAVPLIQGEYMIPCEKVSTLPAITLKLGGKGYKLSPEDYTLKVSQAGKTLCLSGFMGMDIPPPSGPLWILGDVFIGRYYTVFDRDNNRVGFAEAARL

| Structure (SMILES) | Ki (cathepsin D) | Ki (memapsin 2) | IC50 [1] | Ki (memapsin 1) |
| --- | --- | --- | --- | --- |
| COc1cccc(CNCC(O)C(Cc2ccccc2)NC(=O)c2cc(C(=O)NC(C)C3CCCCC3)cc(N(C)S(C)(=O)=O)c2)c1 (centres unmarked) [N1-(1-cyclohexylethyl)-N3-(3-hydroxy-4-(3-methoxybenzylamino)-1-phenylbutan-2-yl)-5-(N-methylmethylsulfonamido)isophthalamide] | < 300 nM | < 300 nM | < 1000 nM | – |
| CC(NC(=O)c1cc(C(=O)NC(Cc2ccccc2)C(O)CNCc2nc3ccccc3[nH]2)cc(N(C)S(C)(=O)=O)c1)c1ccccc1 (centres unmarked) [N1-(4-((1H-benzo[d]imidazol-2-yl)methylamino)-3-hydroxy-1-phenylbutan-2-yl)-5-(N-methylmethylsulfonamido)-N3-(1-phenylethyl)isophthalamide] | < 300 nM | < 300 nM | 1000 to 5000 nM | – |
| CC(C)c1cccc(CNCC(O)C(Cc2ccccc2)NC(=O)c2cc(C(=O)NC(C)c3ccccc3)cc(N(C)S(C)(=O)=O)c2)c1 (centres unmarked) [N1-(3-hydroxy-4-(3-isopropylbenzylamino)-1-phenylbutan-2-yl)-5-(N-methylmethylsulfonamido)-N3-(1-phenylethyl)isophthalamide] | < 300 nM | < 300 nM | < 1000 nM | – |
| COc1cccc(CNCC(O)C(Cc2ccccc2)NC(=O)c2cc(C(=O)NC(C)c3nc(CO)co3)cc(N(C)S(C)(=O)=O)c2)c1 (centres unmarked) [N1-(3-hydroxy-4-(3-methoxybenzylamino)-1-phenylbutan-2-yl)-N3-(1-(4-(hydroxymethyl)oxazol-2-yl)ethyl)-5-(N-methylmethylsulfonamido)isophthalamide] | > 501 nM | < 300 nM | < 1000 nM | – |
| Cc1cc(CNCC(O)C(Cc2ccccc2)NC(=O)c2cc(C(=O)NC(C)c3ccccc3)cc(N(C)S(C)(=O)=O)c2)no1 (centres unmarked) [N1-(3-hydroxy-4-((5-methylisoxazol-3-yl)methylamino)-1-phenylbutan-2-yl)-5-(N-methylmethylsulfonamido)-N3-(1-phenylethyl)isophthalamide] | < 300 nM | < 300 nM | < 1000 nM | – |
| COc1cccc(CNCC(O)C(CC(C)C)NC(=O)c2cc(C(=O)NC(C)c3ccccc3)cc(N(C)S(C)(=O)=O)c2)c1 (centres unmarked) [N1-(2-hydroxy-1-(3-methoxybenzylamino)-5-methylhexan-3-yl)-5-(N-methylmethylsulfonamido)-N3-(1-phenylethyl)isophthalamide] | – | > 501 nM | – | > 501 nM |
| CC(NC(=O)c1cc(C(=O)NC(Cc2ccccc2)C(O)CNCC2CCNCC2)cc(N(C)S(C)(=O)=O)c1)c1ccccc1 (centres unmarked) [N1-(3-hydroxy-1-phenyl-4-(piperidin-4-ylmethylamino)butan-2-yl)-5-(N-methylmethylsulfonamido)-N3-(1-phenylethyl)isophthalamide] | > 501 nM | > 501 nM | > 5000 nM | – |
| CC(NC(=O)c1cc(C(=O)NC(Cc2ccccc2)C(O)CNCC2CCCNC2)cc(N(C)S(C)(=O)=O)c1)c1ccccc1 (centres unmarked) [N1-(3-hydroxy-1-phenyl-4-(piperidin-3-ylmethylamino)butan-2-yl)-5-(N-methylmethylsulfonamido)-N3-(1-phenylethyl)isophthalamide] | > 501 nM | > 501 nM | > 5000 nM | – |
| Cc1cc(CNCC(O)C(Cc2ccccc2)NC(=O)c2cccc(C(=O)N(C)Cc3nc(C)cs3)c2)on1 (centres unmarked) [N1-(3-hydroxy-4-((3-methylisoxazol-5-yl)methylamino)-1-phenylbutan-2-yl)-N3-methyl-N3-((4-methylthiazol-2-yl)methyl)isophthalamide] | > 501 nM | < 300 nM | > 5000 nM | – |
| Cc1csc(CN(C)C(=O)c2cccc(C(=O)NC(Cc3ccccc3)C(O)CNCc3cccc(OC(C)C)c3)c2)n1 (centres unmarked) [N1-(3-hydroxy-4-(3-isopropoxybenzylamino)-1-phenylbutan-2-yl)-N3-methyl-N3-((4-methylthiazol-2-yl)methyl)isophthalamide] | < 300 nM | < 300 nM | < 1000 nM | – |
| Cc1csc(CN(C)C(=O)c2cccc(C(=O)NC(Cc3ccccc3)C(O)CNCCN3CCCC3)c2)n1 (centres unmarked) [N1-(3-hydroxy-1-phenyl-4-(2-(pyrrolidin-1-yl)ethylamino)butan-2-yl)-N3-methyl-N3-((4-methylthiazol-2-yl)methyl)isophthalamide] | > 501 nM | > 501 nM | > 5000 nM | – |
| Cc1csc(CN(C)C(=O)c2cccc(C(=O)NC(Cc3ccccc3)C(O)CNCc3cccc(CF)c3)c2)n1 (centres unmarked) [N1-(4-(3-(fluoromethyl)benzylamino)-3-hydroxy-1-phenylbutan-2-yl)-N3-methyl-N3-((4-methylthiazol-2-yl)methyl)isophthalamide] | < 300 nM | < 300 nM | < 1000 nM | – |
| CC(NC(=O)c1cc(C(=O)NC(Cc2ccccc2)C(O)CNCc2cccc(N(C)C)c2)cc(N(C)S(C)(=O)=O)c1)c1ccccc1 (centres unmarked) [N1-(4-(3-(dimethylamino)benzylamino)-3-hydroxy-1-phenylbutan-2-yl)-5-(N-methylmethylsulfonamido)-N3-(1-phenylethyl)isophthalamide] | > 501 nM | < 300 nM | < 1000 nM | – |
| COc1cccc(CNCC(O)C(Cc2ccccc2)NC(=O)c2cc(C(=O)N(C)Cc3nc(C)cs3)cc(N(C)S(C)(=O)=O)c2)c1 (centres unmarked) [N1-(3-hydroxy-4-(3-methoxybenzylamino)-1-phenylbutan-2-yl)-N3-methyl-5-(N-methylmethylsulfonamido)-N3-((4-methylthiazol-2-yl)methyl)isophthalamide] | < 300 nM | < 300 nM | < 1000 nM | – |
| COc1cccc(CNCC(O)C(Cc2ccccc2)NC(=O)c2cccc(C(=O)N(C)Cc3nc(C)cs3)c2F)c1 (centres unmarked) [2-fluoro-N1-(3-hydroxy-4-(3-methoxybenzylamino)-1-phenylbutan-2-yl)-N3-methyl-N3-((4-methylthiazol-2-yl)methyl)isophthalamide] | < 300 nM | > 501 nM | 1000 to 5000 nM | – |
| CC(NC(=O)c1cc(C(=O)NC(Cc2ccccc2)C(O)CNCCN2CCCCC2)cc(N(C)S(C)(=O)=O)c1)c1ccccc1 (centres unmarked) [N1-(3-hydroxy-1-phenyl-4-(2-(piperidin-1-yl)ethylamino)butan-2-yl)-5-(N-methylmethylsulfonamido)-N3-(1-phenylethyl)isophthalamide] | > 501 nM | > 501 nM | > 5000 nM | – |
| Cc1csc(CN(C)C(=O)c2cccc(C(=O)NC(Cc3ccccc3)C(O)CNCc3cccc(C(C)C)c3)c2)n1 (centres unmarked) [N1-(3-hydroxy-4-(3-isopropylbenzylamino)-1-phenylbutan-2-yl)-N3-methyl-N3-((4-methylthiazol-2-yl)methyl)isophthalamide] | < 300 nM | < 300 nM | < 1000 nM | – |
| CCc1cncc(CNCC(O)C(Cc2ccccc2)NC(=O)c2cc(C(=O)NC(C)c3ccccc3)cc(N(C)S(C)(=O)=O)c2)c1 (centres unmarked) [N1-(4-((5-ethylpyridin-3-yl)methylamino)-3-hydroxy-1-phenylbutan-2-yl)-5-(N-methylmethylsulfonamido)-N3-(1-phenylethyl)isophthalamide] | < 300 nM | < 300 nM | < 1000 nM | – |
| Cc1cc(CNCC(O)C(Cc2ccccc2)NC(=O)c2cc(C(=O)NC(C)c3ccccc3)cc(N(C)S(C)(=O)=O)c2)on1 (centres unmarked) [N1-(3-hydroxy-4-((3-methylisoxazol-5-yl)methylamino)-1-phenylbutan-2-yl)-5-(N-methylmethylsulfonamido)-N3-(1-phenylethyl)isophthalamide] | < 300 nM | < 300 nM | < 1000 nM | – |
